Experimental findings from a melting point compilation (Tetko et al.; mined from patent text by program, amines drawn as free bases though some values may be those of a salt) are described below.

With `CSc1nc(Cl)c(-c2ccc(C)cc2)c(NS(=O)(=O)c2ccc(C(C)(C)C)cc2)n1`, the melting point (commonly the temperature, or range, at which the solid turns liquid) is 178 to 182 °C.

The molecule `O=C(OC(Cn1ccnc1)CS(=O)(=O)c1ccccc1)c1ccc(Cl)cc1Cl` (configuration not stated) returned a melting point of 106 to 109 °C.

As for `N#Cc1ccc(C(=O)NC(=S)NCCc2ccccc2)cc1`, the melting point was in the range of 142 to 144 °C.

Turning to `CNS(=O)(=O)/C=C/c1cc(Cl)cnc1N`, the melting point fell in the range of 194 to 198 °C.

`COc1ccc2c(-c3ccc(OC)c(C)c3)noc2c1` yielded a melting point of 93 to 95 °C.

For `CC(C)c1nc2cc(COc3ccc(C=C4SC(=O)NC4=O)cc3)ccc2o1`, the melting point lay within 219 to 221 °C.

As for `COC(=O)C(C)Oc1ccc(NC(=O)CCCCCO)cc1` (configuration not stated), the melting point was 62 to 64.5 °C.

`CCCCn1c(=O)n(CCN2CCC(C(=O)c3ccc(F)cc3)CC2)c(=O)c2cscc21` had a melting point of 126 to 127 °C.

The molecule `COCCn1nc2c(N)nc3ncccc3c2c1CC(C)(C)O` had a melting point of 233 to 236 °C.

As for `CC(C)(C)OC(=O)NCCCc1ccccc1O`, the melting point was in the range of 75 to 77 °C.

With `CCC(CCN=C(O)C(Br)=C(Br)C(=O)O)c1ccccc1` (configuration not stated), the melting point is 71 to 73 °C.

For `CCCCCN1C(=O)C(=O)c2ccccc21`, the melting point is 50 to 51 °C.

`Clc1cc(C#Cc2nccs2)c2oc(Cc3ccccc3Cl)nc2c1` yielded a melting point of 149 to 151 °C.

In turn, `CS(=O)(=O)Nc1ccc(C(=N)Nc2cc(Cl)cc(NC(=O)/C=C/c3ccccc3Cl)c2)cc1` returned a melting point of 158 to 160 °C.

`C=CCON=C(CC)C1=C(O)CC(c2c(C)c(C)c3c(c2C)CC(C)(CC)C3)CC1=O` (configuration not stated) yielded a melting point of 64 to 65 °C.

`CC(=O)NCC1CN(c2ccc(N3CCC(=C(C)C#N)C(F)C3)c(F)c2)C(=O)O1` (configuration not stated): the melting point was 148 to 150 °C.

For `CC(C)(C)OC(=O)NO[C@H]1CC=C[C@H]1NC(=O)OCC(Cl)(Cl)Cl`, the melting point was in the range of 83 to 84 °C.

`C#CCn1c(C(F)(F)F)c(C(=O)OCC)oc1=O` had a melting point of 72 °C.

Molecule `O=C(Cl)c1cccc(Oc2ccc(S(=O)(=O)c3ccc(Oc4cccc(C(=O)Cl)c4)cc3)cc2)c1` displayed a melting point of 113 to 116 °C.

Molecule `CN(C)C(=O)/C=C/c1cnc2c(NC(=O)c3c(Cl)cccc3Cl)cccc2c1` came in with a melting point of 241 to 242 °C.

`CCOC(=O)C(=CNc1coc2cc(OC)ccc2c1=O)C(=O)OCC`: the melting point lay within 139 to 141 °C.

Regarding `ClCCOc1cccc2[nH]ccc12`, the melting point is 60 °C.

Molecule `Nc1ccccc1C(=O)C=CC(=O)O` showed a melting point of 103 to 107 °C.

The molecule `O=C(O)CNC(=O)c1nc(Cl)c2cc(Cl)c(Cl)cc2c1O` came in with a melting point of 265 °C.

As for `O=C(CCCCC(=O)c1ccc(F)cc1)c1ccc(F)cc1`, the melting point was 165 to 167 °C.

Regarding `Clc1nc(-c2ccccc2)nc(-c2ccccc2)n1`, the melting point lay within 136 to 138 °C.

On to `COC(=O)c1cncc(NC(=O)C(C)CSC(C)=O)c1` (configuration not stated), for which the melting point lay in the range of 88 to 90 °C.

`CC(C)C[C@H](NC(=O)OC(C)(C)C)[C@@H](O)C[C@H](c1ccccc1)C(C)C` yielded a melting point of 95 to 96 °C.

`C=C(C)OC(=O)N1C(=O)[C@H](C)Nc2nc(Cl)ccc21` displayed a melting point of 86 to 87 °C.

As to `CC1(C)CCC(C)(C)c2cc(CC#Cc3ccc(C(=O)O)cc3)ccc21`, the melting point is 167 to 168 °C.

As to `COc1ccccc1N1CCN(CC(C(=O)NC(C)(C)C)c2ccccc2)CC1` (configuration not stated), the melting point lay within 160 to 163 °C.

In turn, `CN1Cc2c(C(N)=S)ncn2-c2ccccc2C1=O` had a melting point of 295 to 297 °C.

In turn, `Cn1cc(-c2cnccn2)cc(Br)c1=O` returned a melting point of 196 to 197 °C.

On to `CC(=O)c1ccc(-n2cnc(C)c2)cc1`, for which the melting point is 100 °C.

Take `COc1cccc2c(-c3ccnc(N[C@H]4CC[C@H](O)CC4)n3)n[nH]c12`: the melting point was 243 to 245 °C.

With `O=[N+]([O-])c1ccc2[nH]cc(Cn3ccnc3)c2c1`, the melting point fell in the range of 230 to 232 °C.

For the molecule `CCOc1ccc(C2=NNC(=O)[C@H]3CCCC[C@@H]23)cc1OCC` (relative stereo), the melting point lay in the range of 156 to 157 °C.

Regarding `Cc1cc(NCc2ccc(Cl)cc2)nc(SCC#N)n1`, the melting point is 99 to 101 °C.

`C[C@@H](CN1CCc2ccc3c(c21)CCS3)NC(=O)OC(C)(C)C` came in with a melting point of 170 to 172 °C.

`O=C(O)Cc1cccc(Cc2nc3c(F)c(F)cc(F)c3s2)c1Cl` had a melting point of 156 to 158 °C.

For `CCOC(=O)N1CCCc2cc(C(=O)CCCl)ccc21`, the melting point was in the range of 78 to 79 °C.

In turn, `COc1cc(C)c(C2=C(C)CN(O)C=C2C)c(C)c1` came in with a melting point of 194 to 195 °C.

Molecule `O=C(O)c1cn(-c2cccc(OC(F)(F)F)c2)cn1` registered a melting point of 173 to 175 °C.

Molecule `C#Cc1ccc2ccc(OC(OC)C(=O)NC(C)(C)COC)cc2c1` (configuration not stated) had a melting point of 91 to 92 °C.

For `Cc1cc(SCC#Cc2ccc(Cl)cc2)ccc1OCC(=O)O`, the melting point is 106 to 108 °C.

Take `Cc1ccc(-c2ccc(S(=O)(=O)Nc3onc(C)c3Br)cc2)cc1`: the melting point is 153 to 156 °C.

`CC#CCOc1ccc(S(=O)(=O)N(C)C(C(=O)NO)C(C)(C)SCCN(CC)CC)cc1` (configuration not stated) displayed a melting point of 55 to 57 °C.

As for `Nc1ccc(-c2ncnn2-c2ccccc2F)cc1`, the melting point lay in the range of 139 to 141 °C.

Molecule `CC(=O)NCc1nc(-c2ccc3c(c2)Nc2ccccc2S3)cs1` displayed a melting point of 219 to 221 °C.

`CC(=O)c1cc(NC(=O)CCCC(=O)Nc2cc(C(C)=O)cc(C(C)=O)c2)cc(C(C)=O)c1` returned a melting point of 200 to 203 °C.

The molecule `COc1ccc(S(=O)(=O)N2c3ccccc3-c3ccccc3C2C)cc1OC` (configuration not stated) registered a melting point of 131 to 133 °C.

`CC(C)Sc1ccc(NC(=O)C2(C)CC2)cc1C(F)(F)F`: the melting point lay in the range of 103 to 105 °C.

Molecule `OC1CSC(Oc2ccccc2-c2nc3ccccc3s2)C(O)C1O` (configuration not stated) displayed a melting point of 196 °C.

For the molecule `CC(=O)NCCSc1c(Cl)cc(N)c(C)c1N`, the melting point stood at 111 °C.

With `CCCCCCCCCCCCCCCCSCC(CNS(=O)(=O)CCCI)NC(=O)NC` (configuration not stated), the melting point lay in the range of 70 to 71 °C.

In the case of `CS(=O)(=O)Nc1cc([C@@H](O)CNC2CCN(c3ccc(NC(=O)c4ccc5c(c4)OCO5)cc3)CC2)ccc1O`, the melting point fell in the range of 104 to 113 °C.

In turn, `CCOc1ccc2nc3cc(OC)c(=O)c(Cl)c-3sc2c1` returned a melting point of 236 to 239 °C.

On to `Cc1ccc([C@@H](Sc2cc(C)ccc2N)[C@H](O)C(N)=O)cc1`, for which the melting point was 145 to 146 °C.

In the case of `Brc1ccc2nc(NC3=NCCN3)[nH]c2c1`, the melting point lay within 264 to 266 °C.

Regarding `COc1ccc(F)cc1NC(=O)Nc1ccc(N2CCN(C(=O)Nc3ccc(OCC(O)CO)cc3C(F)(F)F)CC2)nc1` (configuration not stated), the melting point came to 195 °C.

The molecule `FC(F)(F)c1ccc(-c2ccc(CCl)cn2)cc1` registered a melting point of 73 °C.

Molecule `COc1ccc(NC(=O)N=C2CCCN2C)cc1OC` showed a melting point of 118 to 120 °C.

For `O=c1[nH][nH]c(=O)c2c(O)c3ccc(Br)cc3nc12`, the melting point amounted to 278 °C.

Consider `O=C1c2cccc(NCCO)c2OC12CC2`, for which the melting point lay within 74 to 77 °C.

Molecule `Cc1cc(C)n(-c2nc(Nc3ccc(Cl)cc3)c3ccccc3n2)n1` returned a melting point of 209 to 211 °C.

Take `Cc1cccc(C(=O)P2(=O)Oc3ccccc3-c3ccccc32)c1` (configuration not stated): the melting point was in the range of 108 to 111 °C.

For `O=C(Nc1cccc(Cl)c1)NN1CC=CCC1`, the melting point fell in the range of 146 to 147 °C.

The molecule `COc1cc2cnn(CCCl)c(=O)c2cc1OC` yielded a melting point of 181 to 183 °C.

For `O=[N+]([O-])c1cnc(N2CCc3ccccc3CC2)c([N+](=O)[O-])c1`, the melting point fell in the range of 137 to 140 °C.

`CCC(CC)c1nn(-c2ccc(Br)cn2)cc1CCCOc1c(CC(=O)O)cccc1OC` showed a melting point of 94 to 95 °C.

For `COC(=O)C(C)(C)c1ccc(C(=O)CCCCl)cc1`, the melting point was in the range of 175 to 181 °C.

For the molecule `N#CC(c1ccccc1)c1cn[nH]c1` (racemic), the melting point lay in the range of 124 to 127 °C.

`CC(C)(C)OC(=O)[C@@H](N)Cc1ccc(O)c(C(C)(C)C)c1` yielded a melting point of 43 to 52 °C.

Molecule `O=C1NC(=O)C2CCCC12` (configuration not stated) returned a melting point of 89 °C.

For `Cc1cc(C)n2nc(SCc3ccccc3)nc2c1`, the melting point was 69 to 70 °C.

For `CCCCCCCCCCCCc1ccc2nc3c(c(Cl)c2c1)CCCC3`, the melting point lay within 36 to 38 °C.

On to `CCCSc1sc(C(N)=O)c2c1-c1nn(S(C)(=O)=O)cc1CC2`, for which the melting point lay within 191 to 192 °C.

The molecule `COC(=O)C(=CNC1CC1)C(=O)C=Cc1ccc2c(c1)OCO2` registered a melting point of 158 to 160 °C.

For the molecule `Cc1ccc(-n2nc3c(cc2=O)CCc2sc(C(C)O)cc2-3)cc1` (configuration not stated), the melting point was 146 to 148 °C.

For `O=C(Nc1ccc(-n2nc(C(F)(F)F)cc2OC(F)F)cc1)c1cccc(F)c1F`, the melting point lay within 154 to 155 °C.

For the molecule `O=C1CCCN1C(=O)Oc1ccc(F)cc1`, the melting point lay in the range of 89 to 90 °C.

For the molecule `CCN1CC=C(c2ccc(Nc3ncc4ccc(-c5ccccc5N(C)S(C)(=O)=O)n4n3)c(OC)c2)CC1`, the melting point was in the range of 121 to 123 °C.

Molecule `COC1=C(OC)C(=O)C(CO)=C(C)C1=O` showed a melting point of 52 to 54 °C.

As for `CCCN(CCC)c1c(CC)nn2c(-c3ccc(N(C)C)cc3C(F)(F)F)cccc12`, the melting point lay within 69.1 to 79.8 °C.

As for `CC(C)(C)OC(=O)NC(Cc1ccc(OC(=O)OCc2ccccc2)cc1)C(=O)O` (configuration not stated), the melting point lay within 84 to 85 °C.

For `CS(=O)(=O)c1ccc(-c2[nH]nc(C(CCCO[N+](=O)[O-])=NO)c2-c2ccc(C#N)cc2)cc1`, the melting point is 146 to 147 °C.

`N#Cc1ccccc1OCCCN1CCC(C(c2ccc(F)cc2)c2ccc(F)cc2)CC1` showed a melting point of 88.5 to 90 °C.

Consider `O=C1NCCn2c1cc1ccccc12`, for which the melting point is 228 to 230 °C.

Molecule `CC1(CSc2ccccc2)COC2(CCCCC2)OO1` (configuration not stated) returned a melting point of 45 to 46 °C.

Consider `CSc1nccc(C(C#N)C(=O)c2ccccc2)n1` (configuration not stated), for which the melting point fell in the range of 163 to 164 °C.

As for `CNC(=O)c1cccc2cccc(C(=O)Nc3ccc(F)cc3C)c12`, the melting point stood at 249 °C.

`Cn1c2ccccc2c2c(=O)[nH]ccc21` showed a melting point of 242 °C.
